Experimental data published in US7897592B2, “HIV integrase inhibitors” (priority 2005, dated 2011).

Each compound was assayed against T1, HIV-integrase (recombinant integrase) (Human immunodeficiency virus type 1 group M subtype B, UniProt P12497) (assay: HIV-Integrase Inhibition Activity (SPA bead strand-transfer assay)). Conditions: biotin labeled substrate DNA on SPA beads, P33 labeled target DNA, read-out: Activity (IC50 against HIV-integrase).
T1 construct: Recombinant integrase (0.26 ng) was incubated with the beads
Format: biochemical
Procedure: HIV-Integrase Inhibition Activity. To evaluate in-vitro activity against HIV-integrase, 5 pmole of biotin labeled substrate DNA was bound to 100 μg of Streptavidin coated PVT SPA beads (Amersham Pharmacia Biotech). Recombinant integrase (0.26 ng) was incubated with the beads for 90 min at 37° C. Unbound enzyme was removed by washing the complex followed by addition of inhibitors and 0.1 fmol of P33 labeled target DNA. The reaction was stopped by adding EDTA to a final concentration of 10 mM. Samples were counted in TopCountNXT (Packard) and the CPM was used as a measure of integration. The reaction condition was as described in A. Engelman and R. Craigie, J. Virol. 69, 5908-5911 (1995). The sequences of substrate and target DNA were described in Nucleic Acid Research 22, 1121-1122 (1994). Activity equal to A refers to a compound having IC50=0.002 to 0.10 μM while B and C denote compounds having IC50=0.1 to 1.0 μM and IC50≧1.0 μM respectively.

Compound | IC50 [nM]
O=C(NCc1ccc(F)cc1)c1nc2n(c(=O)c1O)CCSC2 [Example 1, N-(4-fluorobenzyl)-3-hydroxy-4-oxo-4,6,7,9-tetrahydropyrimido[2,1-c][1,4]thiazine-2-carboxamide] | 2 to 100
O=C(NCc1ccc(F)cc1)c1nc2n(c(=O)c1O)CCS(=O)(=O)C2 [Example 2, Pyrimido[2,1-c][1,4]thiazine-2-carboxamide, N-[(4-fluorophenyl)methyl]-4,6,7,9-tetrahydro-3-hydroxy-4-oxo-, 8,8-dioxide] | 100 to 1000
CC1c2nc(C(=O)NCc3ccc(F)cc3)c(O)c(=O)n2CCS1(=O)=O (centres unmarked) [Example 3, Pyrimido[2,1-c][1,4]thiazine-2-carboxamide, N-[(4-fluorophenyl)methyl]-4,6,7,9-tetrahydro-3-hydroxy-9-methyl-4-oxo-, 8,8-dioxide] | 2 to 100
CC1(C)c2nc(C(=O)NCc3ccc(F)cc3)c(O)c(=O)n2CCS1(=O)=O [Example 4, Pyrimido[2,1-c][1,4]thiazine-2-carboxamide, N-[(4-fluorophenyl)methyl]-4,6,7,9-tetrahydro-3-hydroxy-9,9-dimethyl-4-oxo-, 8,8-dioxide] | 2 to 100
CC1(C)c2nc(C(=O)NCc3ccc(F)cc3-n3cncn3)c(O)c(=O)n2CCS1(=O)=O [Example 5, Pyrimido[2,1-c][1,4]thiazine-2-carboxamide, N-[[4-fluoro-2-(1H-1,2,4-triazol-1-yl)phenyl]methyl]-4,6,7,9-tetrahydro-3-hydroxy-9,9-dimethyl-4-oxo-, 8,8-dioxide] | 2 to 100
Cc1ncn(-c2cc(F)ccc2CNC(=O)c2nc3n(c(=O)c2O)CCS(=O)(=O)C3(C)C)n1 [Example 6, Pyrimido[2,1-c][1,4]thiazine-2-carboxamide, N-[[4-fluoro-2-(3-methyl-1H-1,2,4-triazol-1-yl)phenyl]methyl]-4,6,7,9-tetrahydro-3-hydroxy-9,9-dimethyl-4-oxo-, 8,8-dioxide] | 2 to 100
Cc1ncnn1-c1cc(F)ccc1CNC(=O)c1nc2n(c(=O)c1O)CCS(=O)(=O)C2(C)C [Example 7, Pyrimido[2,1-c][1,4]thiazine-2-carboxamide, N-[[4-fluoro-2-(5-methyl-1H-1,2,4-triazol-1-yl)phenyl]methyl]-4,6,7,9-tetrahydro-3-hydroxy-9,9-dimethyl-4-oxo-8,8-dioxide] | 2 to 100
O=C(NCc1ccc(F)cc1)c1nc2n(c(=O)c1O)CCS(=O)(=O)C21CC1 [Example 8, Spiro[cyclopropane-1,9′(4′H)-pyrimido[2,1-c][1,4]thiazine]-2′-carboxamide, N-[(4-fluorophenyl)methyl]-6′,7′-dihydro-3′-hydroxy-4′-oxo-, 8′,8′-dioxide] | 2 to 100
O=C(NCc1ccc(F)cc1-n1cncn1)c1nc2n(c(=O)c1O)CCS(=O)(=O)C21CC1 [Example 9, Spiro[cyclopropane-1,9′(4′H)-pyrimido[2,1-c][1,4]thiazine]-2′-carboxamide, N-[[4-fluoro-2-(1H-1,2,4-triazol-1-yl)phenyl]methyl]-6′,7′-dihydro-3′-hydroxy-4′-oxo-, 8′,8′-dioxide] | 2 to 100
Cc1ncn(-c2cc(F)ccc2CNC(=O)c2nc3n(c(=O)c2O)CCS(=O)(=O)C32CC2)n1 [Example 10, Spiro[cyclopropane-1,9′(4′H)-pyrimido[2,1-c][1,4]thiazine]-2′-carboxamide, N-[[4-fluoro-2-(3-methyl-1H-1,2,4-triazol-1-yl)phenyl]methyl]-6′,7′-dihydro-3′-hydroxy-4′-oxo-, 8′,8′-dioxide] | 2 to 100
Cc1ncnn1-c1cc(F)ccc1CNC(=O)c1nc2n(c(=O)c1O)CCS(=O)(=O)C21CC1 [Example 11, Spiro[cyclopropane-1,9′(4′H)-pyrimido[2,1-c][1,4]thiazine]-2′-carboxamide, N-[[4-fluoro-2-(5-methyl-1H-1,2,4-triazol-1-yl)phenyl]methyl]-6′,7′-dihydro-3′-hydroxy-4′-oxo-, 8′,8′-dioxide] | 2 to 100
O=C(NCc1ccc(F)cc1)c1nc2n(c(=O)c1O)CCS(=O)(=O)C21CCCC1 [Example 12, Spiro[cyclopentane-1,9′(4′H)-pyrimido[2,1-c][1,4]thiazine]-2′-carboxamide, N-[(4-fluorophenyl)methyl]-6′,7′-dihydro-3′-hydroxy-4′-oxo-, 8′,8′-dioxide] | 2 to 100
O=C(NCc1ccc(F)cc1-n1cncn1)c1nc2n(c(=O)c1O)CCS(=O)(=O)C21CCCC1 [Example 13, Spiro[cyclopentane-1,9′(4′H)-pyrimido[2,1-c][1,4]thiazine]-2′-carboxamide, N-[[4-fluoro-2-(1H-1,2,4-triazol-1-yl)phenyl]methyl]-6′,7′-dihydro-3′-hydroxy-4′-oxo-, 8′,8′-dioxide] | 2 to 100
Cc1ncn(-c2cc(F)ccc2CNC(=O)c2nc3n(c(=O)c2O)CCS(=O)(=O)C32CCCC2)n1 [Example 14, Spiro[cyclopentane-1,9′(4′H)-pyrimido[2,1-c][1,4]thiazine]-2′-carboxamide, N-[[4-fluoro-2-(3-methyl-1H-1,2,4-triazol-1-yl)phenyl]methyl]-6′,7′-dihydro-3′-hydroxy-4′-oxo-, 8′,8′-dioxide] | 2 to 100
Cc1ncnn1-c1cc(F)ccc1CNC(=O)c1nc2n(c(=O)c1O)CCS(=O)(=O)C21CCCC1 [Example 15, Spiro[cyclopentane-1,9′(4′H)-pyrimido[2,1-c][1,4]thiazine]-2′-carboxamide, N-[[4-fluoro-2-(5-methyl-1H-1,2,4-triazol-1-yl)phenyl]methyl]-6′,7′-dihydro-3′-hydroxy-4′-oxo-, 8′,8′-dioxide] | 2 to 100
O=C(NCc1ccc(F)cc1)c1nc2n(c(=O)c1O)CCS(=O)(=O)C21CCOCC1 [Example 16, Spiro[4H-pyran-4,9′(4′H)-pyrimido[2,1-c][1,4]thiazine]-2′-carboxamide, N-[(4-fluorophenyl)methyl]-2,3,5,6,6′,7′-hexahydro-3′-hydroxy-4′-oxo-, 8′,8′-dioxide] | 2 to 100
O=C(NCc1ccc(F)cc1-n1cncn1)c1nc2n(c(=O)c1O)CCS(=O)(=O)C21CCOCC1 [Example 17, Spiro[4H-pyran-4,9′(4′H)-pyrimido[2,1-c][1,4]thiazine]-2′-carboxamide, N-[[4-fluoro-2-(1H-1,2,4-triazol-1-yl)phenyl]methyl]-2,3,5,6,6′,7′-hexahydro-3′-hydroxy-4′-oxo-, 8′,8′-dioxide] | 2 to 100
Cc1ncnn1-c1cc(F)ccc1CNC(=O)c1nc2n(c(=O)c1O)CCS(=O)(=O)C21CCOCC1 [Example 18, Spiro[4H-pyran-4,9′(4′H)-pyrimido[2,1-c][1,4]thiazine]-2′-carboxamide, N-[[4-fluoro-2-(5-methyl-1H-1,2,4-triazol-1-yl)phenyl]methyl]-2,3,5,6,6′,7′-hexahydro-3′-hydroxy-4′-oxo-, 8′,8′-dioxide] | 2 to 100
O=C(NCc1ccc(F)cc1)c1nc2n(c(=O)c1O)CCCSC2 [Example 19, N-(4-Fluorobenzyl)-3-hydroxy-4-oxo-6,7,8,10-tetrahydro-4H-pyrimido[2,1-c][1,4]thiazepine-2-carboxamide] | 2 to 100
CC1SCCCn2c1nc(C(=O)NCc1ccc(F)cc1)c(O)c2=O (centres unmarked) [Example 20, N-(4-Fluorobenzyl)-3-hydroxy-10-methyl-4-oxo-6,7,8,10-tetrahydro-4H-pyrimido[2,1-c][1,4]thiazepine-2-carboxamide] | 2 to 100
O=C(NCc1ccc(F)cc1)c1nc2n(c(=O)c1O)CCCS(=O)(=O)C2 [Example 21, 6H-Pyrimido[2,1-c][1,4]thiazepine-2-carboxamide, N-[(4-fluorophenyl)methyl]-4,7,8,10-tetrahydro-3-hydroxy-4-oxo-, 9,9-dioxide] | 2 to 100
CC1c2nc(C(=O)NCc3ccc(F)cc3)c(O)c(=O)n2CCCS1(=O)=O (centres unmarked) [Example 22, 6H-Pyrimido[2,1-c][1,4]thiazepine-2-carboxamide, N-[(4-fluorophenyl)methyl]-4,7,8,10-tetrahydro-3-hydroxy-10-methyl-4-oxo-, 9,9-dioxide] | 2 to 100
CC1(C)c2nc(C(=O)NCc3ccc(F)cc3)c(O)c(=O)n2CCCS1(=O)=O [Example 23, 6H-Pyrimido[2,1-c][1,4]thiazepine-2-carboxamide, N-[(4-fluorophenyl)methyl]-4,7,8,10-tetrahydro-3-hydroxy-10,10-dimethyl-4-oxo-, 9,9-dioxide] | 2 to 100
O=C(NCc1ccc(F)cc1)c1nc2n(c(=O)c1O)CCCS(=O)(=O)C21CC1 [Example 24, Spiro[cyclopropane-1,10′(4′H)-[6H]pyrimido[2,1-c][1,4]thiazepine]-2′-carboxamide, N-[(4-fluorophenyl)methyl]-7′,8′-dihydro-3′-hydroxy-4′-oxo-, 9′,9′-dioxide] | 2 to 100
O=C(NCc1ccc(F)cc1)c1nc2n(c(=O)c1O)CCCS(=O)(=O)C21CCCC1 [Example 25, Spiro[cyclopentane-1,10′(4′H)-[6H]pyrimido[2,1-c][1,4]thiazepine]-2′-carboxamide, N-[(4-fluorophenyl)methyl]-7′,8′-dihydro-3′-hydroxy-4′-oxo-, 9′,9′-dioxide] | 2 to 100
O=C(NCc1ccc(F)cc1)c1nc2n(c(=O)c1O)CCCS(=O)(=O)C21CCOCC1 [Example 26, Spiro[4H-pyran-4,10′(4′H)-[6H]pyrimido[2,1-c][1,4]thiazepine]-2′-carboxamide, N-[(4-fluorophenyl)methyl]-2,3,5,6,7′,8′-hexahydro-3′-hydroxy-4′-oxo-, 9′,9′-dioxide] | 2 to 100
